The nature of series [1]: Tested for the therapeutic index, which was determined as the ratio of ED50 for ataxia and ED50 to prevent seizures. As to conditions: for selectivity ratio: read-out: TI.
Series [2] has as its system Mus musculus. Put plainly: Tested in vivo for anticonvulsant activity against maximal electroshock in mouse, intravenously (MES tested at 1 h). It is filed as functional. (The maximal electroshock test induces tonic seizures with an electrical stimulus.)
The subject of series [3] is Mus musculus. Put plainly: Tested in vivo for the ability to produce ataxia in mouse, intravenously. (ataxia tested at 30 min). It is filed as functional.
Series [4] is described as follows: Tested for the NMDA antagonist activity, glutamate induced calcium influx in cultured neuronal cells. It is filed as functional, cell-based.
The nature of series [5]: Tested for the NMDA antagonist activity, glutamate induced LDH release in cultured neuronal cells. Type of series: functional, cell-based. In general terms: LDH in the medium is a marker of cell lysis.
A short description of series [6]: Partition coefficient (logP). Type of series: physicochemical. As to conditions: octanol/water.
In a further series the target is Glutamate NMDA receptor. Put plainly: Tested for the inhibitory activity against NMDA receptor site as measured in a [3H]CPP binding assay of rat brain neuronal membranes.
Series [7] concerns Mus musculus. The experiment in a line: Tested in vivo for anticonvulsant activity against maximal electroshock in mouse, intravenously. Type of series: functional.

Results on six molecules are retold here after ChEMBL document CHEMBL1127096, “Synthesis and anticonvulsant activity of the (+)- and ()-enantiomers of 1,2,3,4-tetrahydro-5-(2-phosphonoethyl)-3-isoquinolinecarboxylic acid, a competitive NMDA antagonist” (Bioorg Med Chem Lett, 1993).

For orientation: ED50 means the dose that gives a 50% effect, or the effect in half of the subjects. Turning to `O=C(O)[C@H]1Cc2c(CCP(=O)(O)O)cccc2CN1`, the selectivity ratio in series [1] came out at 1.76. Also, the ED50 came out at 3.56 mg/kg with Mus musculus [2] and 6.29 mg/kg with Mus musculus [3].

Usually IC50 stands for the concentration that gives 50% inhibition. What is called logP is a log measure of how a compound divides between an organic and an aqueous phase. Consider `O=C(O)C1CN(CCCP(=O)(O)O)CCN1` (centres undefined), for which the values for the half-inhibitory concentration (IC50) in series [4] and in series [5] were 2.4 µM and 9 µM, respectively. Also, the selectivity ratio in series [1] worked out at 2.21. In addition, the ED50 with Mus musculus [2] (Mus musculus, iv, 1 h, read-out: ED50) is 2.35 mg/kg; with Mus musculus [3] (Mus musculus, iv, 0.5 h, read-out: ED50), 5.21 mg/kg. The same molecule returned a logP in series [6] of -3.4.

As to `O=C(O)[C@H]1Cc2c(CCP(=O)(O)O)cccc2CN1` (racemic), the IC50 at Glutamate NMDA receptor was found to be 0.27 µM; in series [4] it was 5.1 µM; in series [5] it was 8.8 µM. Further, in series [1], the TI amounted to 1.72. In addition, the ED50 is 9.2 mg/kg in the series on Mus musculus [2] and 15.84 mg/kg with Mus musculus [3]. This molecule also yielded a logP in series [6] of 1.4.

In the series with Mus musculus [7], `C/C(=C\C(N)C(=O)O)CP(=O)(O)O` (racemic) [CGP-37849] yielded an ED50 of 21 mg/kg.

In the series on Mus musculus [7], `C/C(=C\C(N)C(=O)O)CP(=O)(O)O` (single isomer, unassigned; (+)) [CGP-37849] had an ED50 of 7 mg/kg.

As to `C/C(=C\C(N)C(=O)O)CP(=O)(O)O` (single isomer, unassigned; (-)) [CGP-37849], in the series with Mus musculus [7], the ED50 is greater than 60 mg/kg.
